# Publication PMC11681159, “Bee pollen peptides as potent tyrosinase inhibitors with anti-melanogenesis effects in murine b16f10 melanoma cells and zebrafish embryos” (Scientific Reports, 2024)
# “Also recorded” adds a separate entry of the source. Ends that are not written are not given here.
# Assays:
# mushroom TYR = biological target: T1, mushroom TYR (Agaricus bisporus, UniProt C7FF04); test: Kinetic study, Lineweaver-Burk, di-phenolase; format: biochemical; details: Km rose, Vmax unchanged
# T1 construct: purchased Sigma-Aldrich, Merck T3824
# Experimental: It is necessary to determine the type of TYR inhibitory activity which takes place. This can be achieved through a modified version of an assay described by Feng et al.[39]. The process starts by dissolving the peptide VY-9 in deionized water at various concentrations (0, 0.25, 0.5, and 1 mM). Each VY-9 peptide sample at each concentration (35 µL) was combined 15 µL of mushroom TYR (333 U/mL in 50 mM PBS pH 6.8) prior to 5 min of incubation at 25 °C. Subsequently, various concentrations of substrate were introduced, namely 0–2 mM L-tyrosine in the case of mono-phenolase, and 0–12 mM L-DOPA for di-phenolase. These new mixtures underwent further incubation for 30 min at the same temperature of 25 °C. Upon completion, a spectrophotometer was used to measure the absorbance and determine the inhibitory activity at 490 nm. Lineweaver-Burk plots were then used in calculating Km and Vmax, the kinetic parameters. Km is indicated by the intersection point on the X-axis while Vmax is indicated by the intersection point on the Y-axis in the mode of TYR inhibition under examination. Construction of the plots linked the substrate concentration reciprocal on the X-axis and the absorbance reciprocal (at 490 nm) on the Y-axis, to represent the starting rate for the enzymatic reaction. […]
# zebrafish embryos [1] = test: Acute toxicity in zebrafish embryos; format: in vivo
# Experimental: To perform the test of acute toxicity, a total of 20 fertilized zebrafish embryos were collected at around 4 h after fertilization and added to each well in a 12-well plate. […] Incubation of the plate then took place until 48 h after fertilization at a temperature of 28.5 ± 1 °C. The test solutions were refreshed at 24 h after fertilization to allow the counting and removal of any dead embryos. Following exposure, a stereomicroscope (SZX16, Olympus, Japan) was used to record the embryo morphological effects. Meanwhile, a slightly modified version of a previously described melanin inhibitory assay was carried out[30]. The embryos were then homogenized using a cold lysis buffer (PBS pH 7.4, 1% Triton-X and 1% DMSF). The lysate then underwent 10 min of sonication before being placed in a centrifuge for 5 min at 10,000×g. The pellet was then removed from the centrifuge and dissolved in 200 µL of 1 N NaOH for 1 h at a temperature of 85 °C. This sample was subsequently vortexed and placed in the centrifuge for a further 5 min at 10,000×g. A microplate reader (Spectramax M5, Molecular Devices, USA) was then employed to determine the supernatant absorbance at 490 nm. Melanin content levels could then by calibrated by using the protein amount, and were reported in the form of a percentage compared to the untreated control. In the melanin inhibitory assay, the positive control used was phenylthiourea (PTU) solution (0.0015%).
# [2] = tested on: TYR in B16F10 melanoma cells; test: Cellular TYR assay; format: cell-based, mouse; details: VY-9 1.6 µM, 48 h, L-DOPA, 490 nm
# Experimental: In order to assess the rate of oxidation for L-DOPA, culture flasks were used to first grow B16F10 cells (1 × 10^5 cells/flask) for 24 h. […] Cell harvesting was conducted by trypsinization and the cells were then rinsed twice in cold PBS. In the next step, PBS buffer (0.2 mL, pH 6.8) which contained 1% (w/v) Triton X-100 and 1 mM PMSF was introduced to the lysed cell pellets, whereupon amounts of 100 µL of the lysed cells were added to a 96-well plate by pipette, along with 100 µL of 2 mM L-DOPA. This was followed by a one-hour incubation period while the temperature was maintained at 37 °C. A microplate reader was then used to detect the formation of dopachrome in the mixture at 490 nm. The findings are presented in terms of percentage of the control, while arbutin (0.2 mM) served as the positive control. Each test was carried out in triplicate, with the findings presented in the form of mean ± standard deviation.
# zebrafish embryos [3] = test: Melanin inhibitory assay in zebrafish embryos; format: in vivo; details: 48 h after fertilization, vs control
# Experimental: To perform the test of acute toxicity, a total of 20 fertilized zebrafish embryos were collected at around 4 h after fertilization and added to each well in a 12-well plate. These embryos then underwent treatment using different quantities of […] (2, 4, 6, 8, and 10 µM), while the negative control was distilled water and the positive control was 3,4-dichloroaniline. Incubation of the plate then took place until 48 h after fertilization at a temperature of 28.5 ± 1 °C. The test solutions were refreshed at 24 h after fertilization to allow the counting and removal of any dead embryos. Following exposure, a stereomicroscope (SZX16, Olympus, Japan) was used to record the embryo morphological effects. Meanwhile, a slightly modified version of a previously described melanin inhibitory assay was carried out[30]. The embryos were then homogenized using a cold lysis buffer (PBS pH 7.4, 1% Triton-X and 1% DMSF). The lysate then underwent 10 min of sonication before being placed in a centrifuge for 5 min at 10,000×g. The pellet was then removed from the centrifuge and dissolved in 200 µL of 1 N NaOH for 1 h at a temperature of 85 °C. This sample was subsequently vortexed and placed in the centrifuge for a further 5 min at 10,000×g. A microplate reader (Spectramax M5, Molecular Devices, USA) was then employed to determine the supernatant absorbance at 490 nm. Melanin content levels could then by calibrated by using the protein amount, and were reported in the form of a percentage compared to the untreated control. In the melanin inhibitory assay, the positive control used was phenylthiourea (PTU) solution (0.0015%).
# B16F10 melanoma cells = test: Melanin content assay in B16F10 cells; format: cell-based, mouse; details: VY-9 1.6 µM, 48 h, 405 nm
# Experimental: In order to assess melanin content, culture flasks were used to grow B16F10 cells (1 × 10^5 cells/flask) for 24 h. […] Cell harvesting was conducted by trypsinization and the cells were then rinsed twice in cold PBS. The cell pellets were then dissolved in 0.3 mL of 1 N NaOH to produce solutions which were heated to 90 °C for a one-hour period. The lysates were then placed in a centrifuge for 10 min at 3,000 × g whereupon a microplate reader was used to assess the melanin quantity at 405 nm. The protein content in the supernatant was evaluated using the Bradford protein assay with the findings presented in the form of a percentage of the control. Arbutin (0.2 mM) served as the positive control. Each trial was carried out in triplicate, with results presented in the form of mean ± standard deviation.
# T1 sequence (C7FF04 2-392): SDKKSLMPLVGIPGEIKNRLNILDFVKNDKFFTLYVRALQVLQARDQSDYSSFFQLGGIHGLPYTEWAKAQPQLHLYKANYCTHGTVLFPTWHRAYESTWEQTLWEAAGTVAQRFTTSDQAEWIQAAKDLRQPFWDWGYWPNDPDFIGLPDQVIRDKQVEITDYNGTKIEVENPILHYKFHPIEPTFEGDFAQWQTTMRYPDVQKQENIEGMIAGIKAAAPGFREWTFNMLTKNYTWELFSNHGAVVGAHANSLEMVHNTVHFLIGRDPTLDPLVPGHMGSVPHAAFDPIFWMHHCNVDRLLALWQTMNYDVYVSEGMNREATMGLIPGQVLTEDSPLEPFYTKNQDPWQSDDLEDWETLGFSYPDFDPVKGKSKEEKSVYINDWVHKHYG
sequence,measurement,setting,value
"VDGYPAAGY [VY-9, Val-Asp-Gly-Tyr-Pro-Ala- Ala-Gly-Tyr]","inhibition type, di-phenolase",mushroom TYR,competitive inhibitor
same,embryo development,zebrafish embryos [1]; 20 µM,the development of the embryo was significantly retarded
same,embryo survival / malformation,"zebrafish embryos [1]; 2–10 µM, vs control",no significant influence; also recorded: no significant difference in the rates for survival or malformation
same,no observed effect concentration (NOEC),"zebrafish embryos [1]; zebrafish embryos, to 48 h after fertilization, 28.5 °C",10 µM
same,"cellular TYR activity, rate of inhibition",[2],44.88%
same,melanin content,zebrafish embryos [3]; 4 µM,"anti-melanogenic effects were observed; also recorded: the lowest among all treatment groups, it did not achieve statistical significance"
same,melanin content,zebrafish embryos [3]; any concentration (2–10 µM),no significant reduction in melanin levels at any concentration
same,reduction in melanin content,B16F10 melanoma cells,52.31%
